# Patent US10457687B2, “Aminoacid derivatives, a process for their preparation and pharmaceutical compositions containing them” (LES LABORATOIRES SERVIER, priority 2015, dated 2019)
# How the values were obtained:
# Mcl-1 protein = Mcl-1 protein (Homo sapiens, UniProt Q07820); assay: Inhibition of Mcl-1 by the fluorescence polarisation technique (Method 1 or Method 2); type: binding; conditions: for IC50: fluorescence polarisation, Fluorescein labelled ligand, Method 1 (not underlined) or Method 2 (underlined), read-out: IC50 (μM) Mcl-1 FP
# Mcl-1 protein, sequence (Q07820 whole entry): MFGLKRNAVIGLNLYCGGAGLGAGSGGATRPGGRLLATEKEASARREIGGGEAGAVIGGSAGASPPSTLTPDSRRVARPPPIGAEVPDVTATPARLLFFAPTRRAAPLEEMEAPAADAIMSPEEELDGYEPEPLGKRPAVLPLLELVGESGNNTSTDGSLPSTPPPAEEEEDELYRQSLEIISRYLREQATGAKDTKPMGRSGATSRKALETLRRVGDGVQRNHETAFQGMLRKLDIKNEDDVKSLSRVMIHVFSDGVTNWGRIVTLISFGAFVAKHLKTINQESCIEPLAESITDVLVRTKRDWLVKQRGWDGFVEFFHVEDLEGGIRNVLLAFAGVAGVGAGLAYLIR
# How it was run: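 Binding measured by FP, with Mcl-1 protein and fluorescein-labelled ligand mixed with compounds in an 11-point series at 5% final DMSO. Method 2 used 10 nM each of protein and ligand in phosphate buffer (20 mM Na2HPO4, 1 mM EDTA, 50 mM NaCl, pH 7.4); Method 1 used 5 nM protein, 1 nM ligand in HEPES buffer (10 mM HEPES, 150 mM NaCl, 0.05% Tween 20, pH 7.4).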
# [1] = tested on: H929 multiple myeloma tumour line; assay: In vitro cytotoxicity, MTT assay, 48 hours; type: cell-based; conditions: H929 cells, 48 hours exposure, cell viability
# Description: The cytotoxicity studies were carried out on the H929 multiple myeloma tumour line.
# The cells are distributed onto microplates and exposed to the test compounds for 48 hours.
# [2] = partial inhibitors, @ 10 μM test compound
IC50 (Mcl-1 protein) [µM],SMILES,"IC50 ([1]; Homo sapiens, NCI-H929) [nM]",IC50 [1] [nM],also measured
0.013,"CCCCn1nccc1COc1ccccc1CC(Nc1ncnc2sc(-c3ccc(F)cc3)c(-c3ccc(OCCN4CCN(C)CC4)c(Cl)c3C)c12)C(=O)O [Example 6, 2-[(1-butyl-1H-pyrazol-5-yl)methoxy]-N-[(5Sa)-5-{3-chloro-2-methyl-4-[2-(4-methylpiperazin-1-yl)ethoxy]phenyl}-6-(4-fluorophenyl)thieno[2,3-d]pyrimidin-4-yl]-D-phenylalanine]",> 600,–,–
0.006,"CCn1nccc1COc1ccccc1CC(Nc1ncnc2sc(-c3ccc(F)o3)c(-c3ccc(OCCN4CCN(C)CC4)c(Cl)c3C)c12)C(=O)O [Example 21, N-[(5Sa)-5-{3-chloro-2-methyl-4-[2-(4-methylpiperazin-1-yl)ethoxy]phenyl}-6-(5-fluorofuran-2-yl)thieno[2,3-d]pyrimidin-4-yl]-2-[(1-ethyl-1H-pyrazol-5-yl)methoxy]-D-phenylalanine]",39.7,–,–
0.006,"COc1ccccc1CC(Nc1ncnc2sc(-c3ccc(F)o3)c(-c3ccc(OCCN4CCN(C)CC4)c(Cl)c3C)c12)C(=O)O [Example 16, N-[(5Sa)-5-{3-chloro-2-methyl-4-[2-(4-methylpiperazin-1-yl)ethoxy]phenyl}-6-(5-fluorofuran-2-yl)thieno[2,3-d]pyrimidin-4-yl]-2-methoxy-D-phenylalanine]",99.3,–,–
0.038,"Cc1c(-c2c(-c3ccc(F)o3)sc3ncnc(NC(Cc4ccccc4O)C(=O)O)c23)ccc(OCCN2CCN(C)CC2)c1Cl [Example 14, N-[(5Sa)-5-{3-chloro-2-methyl-4-[2-(4-methylpiperazin-1-yl)ethoxy]phenyl}-6-(5-fluorofuran-2-yl)thieno[2,3-d]pyrimidin-4-yl]-2-hydroxy-D-phenylalanine]",721,–,–

# More lines, now with the values behind:
SMILES,IC50 (Mcl-1 protein) [µM],"IC50 ([1]; Homo sapiens, NCI-H929) [nM]",IC50 [1] [nM],also measured
"Cc1c(-c2c(-c3ccsc3)sc3ncnc(NC(Cc4ccccc4CN)C(=O)O)c23)ccc(OCCN2CCOCC2)c1Cl [Example 38, 2-(aminomethyl)-N-[(5Sa)-5-{3-chloro-2-methyl-4-[2-(morpholin-4-yl)ethoxy]phenyl}-6-(thiophen-3-yl)thieno[2,3-d]pyrimidin-4-yl]-D-phenylalanine]",1.87,> 3750,–,–
"CCCCn1nccc1COc1ccccc1C[C@@H](Nc1ncnc2sc(-c3ccc(F)o3)c(-c3ccc(OCCN4CCN(C)CC4)c(Cl)c3C)c12)C(=O)O [Example 23, 2-[(1-butyl-1H-pyrazol-5-yl)methoxy]-N-[(5Ra)-5-{3-chloro-2-methyl-4-[2-(4-methylpiperazin-1-yl)ethoxy]phenyl}-6-(5-fluorofuran-2-yl)thieno[2,3-d]pyrimidin-4-yl]-D-phenylalanine]",–,–,> 600,"percentage fluorescence polarisation inhibition, Mcl-1 FP (Mcl-1 protein; partial inhibitors, @ 1 μM test compound): 41.27% @ 1 μM"
"Cc1c(-c2c(-c3ccsc3)sc3ncnc(NC(Cc4ccccn4)C(=O)O)c23)ccc(OCCN2CCOCC2)c1Cl [Example 35, N-[(5Ra)-5-{3-chloro-2-methyl-4-[2-(morpholin-4-yl)ethoxy]phenyl}-6-(thiophen-3-yl)thieno[2,3-d]pyrimidin-4-yl]-3-pyridin-2-yl-D-alanine]",–,–,> 30000,"percentage fluorescence polarisation inhibition, Mcl-1 FP (Mcl-1 protein; [2]): 24.78% @ 10 μM"
"Cc1c(-c2c(-c3ccco3)sc3ncnc(NC(Cc4ccccc4OCc4ccccn4)C(=O)O)c23)ccc(OCCN2CCN(C)CC2)c1Cl [Example 13, N-[(5Ra)-5-{3-chloro-2-methyl-4-[2-(4-methylpiperazin-1-yl)ethoxy]phenyl}-6-(furan-2-yl)thieno[2,3-d]pyrimidin-4-yl]-2-(pyridin-2-ylmethoxy)-D-phenylalanine]",–,–,> 3750,"percentage fluorescence polarisation inhibition, Mcl-1 FP (Mcl-1 protein; [2]): 58% @ 10 μM"
"Cc1c(-c2c(-c3ccsc3)sc3ncnc(N[C@H](Cc4ccccn4)C(=O)O)c23)ccc(OCCN2CCN(C)CC2)c1Cl [Example 30, N-[(5Ra)-5-{3-chloro-2-methyl-4-[2-(4-methylpiperazin-1-yl)ethoxy]phenyl}-6-(thiophen-3-yl)thieno[2,3-d]pyrimidin-4-yl]-3-pyridin-2-yl-D-alanine]",–,–,> 3750,"percentage fluorescence polarisation inhibition, Mcl-1 FP (Mcl-1 protein; [2]): 68.2% @ 10 μM"
"CC#Cc1sc2ncnc(NC(Cc3ccccc3OCc3ccnn3CC(F)(F)F)C(=O)O)c2c1-c1ccc(OCCN2CCN(C)CC2)c(Cl)c1C [Example 42, N-[(5Sa)-5-{3-chloro-2-methyl-4-[2-(4-methylpiperazin-1-yl)ethoxy]phenyl}-6-(prop-1-yn-1-yl)thieno[2,3-d]pyrimidin-4-yl]-2-{[1-(2,2,2-trifluoroethyl)-1H-pyrazol-5-yl]methoxy}-D-phenylalanine]",0.01,61,–,–
"Cc1c(-c2c(-c3ccsc3)sc3ncnc(NC(CC4CCCCC4)C(=O)O)c23)ccc(OCCN2CCN(C)CC2)c1Cl [Example 32, N-[(5Sa)-5-{3-chloro-2-methyl-4-[2-(4-methylpiperazin-1-yl)ethoxy]phenyl}-6-(thiophen-3-yl)thieno[2,3-d]pyrimidin-4-yl]-3-cyclohexyl-D-alanine]",0.007,> 3750,–,–
"COC(=O)c1oc(-c2sc3ncnc(NC(Cc4ccccc4OC)C(=O)O)c3c2-c2ccc(OCCN3CCN(C)CC3)c(Cl)c2C)cc1C [Example 65, N-((5Sa)-5-{3-chloro-2-methyl-4-[2-(4-methylpiperazin-1-yl)ethoxy]phenyl}-6-[5-(methoxycarbonyl)-4-methylfuran-2-yl]thieno[2,3-d]pyrimidin-4-yl)-2-methoxy-D-phenylalanine]",0.345,≥ 2780,–,–
"Cc1c(-c2c(-c3ccco3)sc3ncnc(NC(Cc4ccccc4OCc4ccccn4)C(=O)O)c23)ccc(OCCN2CCN(C)CC2)c1Cl [Example 12, N-[(5Sa)-5-{3-chloro-2-methyl-4-[2-(4-methylpiperazin-1-yl)ethoxy]phenyl}-6-(furan-2-yl)thieno[2,3-d]pyrimidin-4-yl]-2-(pyridin-2-ylmethoxy)-D-phenylalanine]",0.014,647,–,–
"Cc1c(-c2c(-c3ccsc3)sc3ncnc(NC(Cc4ccccc4F)C(=O)O)c23)ccc(OCCN2CCN(C)CC2)c1Cl [Example 34, N-[(5Sa)-5-{3-chloro-2-methyl-4-[2-(4-methylpiperazin-1-yl)ethoxy]phenyl}-6-(thiophen-3-yl)thieno[2,3-d]pyrimidin-4-yl]-2-fluoro-D-phenylalanine]",0.726,4270,–,–
"Cc1c(-c2c(-c3ccc(F)o3)sc3ncnc(N[C@H](Cc4ccccc4OCc4ccnc(OCC(F)(F)F)n4)C(=O)O)c23)ccc(OCCN2CCN(C)CC2)c1Cl [Example 25, N-[(5Ra)-5-{3-chloro-2-methyl-4-[2-(4-methylpiperazin-1-yl)ethoxy]phenyl}-6-(5-fluorofuran-2-yl)thieno[2,3-d]pyrimidin-4-yl]-2-{[2-(2,2,2-trifluoroethoxy)pyrimidin-4-yl]methoxy}-D-phenylalanine]",–,–,> 600,"percentage fluorescence polarisation inhibition, Mcl-1 FP (Mcl-1 protein; [2]): 55.5% @ 10 μM"
"COc1ccccc1-c1nccc(COc2ccccc2CC(Nc2ncnc3sc(-c4ccc(F)o4)c(-c4ccc(OCCN5CCN(C)CC5)c(Cl)c4C)c23)C(=O)O)n1 [Example 27, N-[(5Sa)-5-{3-chloro-2-methyl-4-[2-(4-methylpiperazin-1-yl)ethoxy]phenyl}-6-(5-fluorofuran-2-yl)thieno[2,3-d]pyrimidin-4-yl]-2-{[2-(2-methoxyphenyl)pyrimidin-4-yl]methoxy}-D-phenylalanine]",0.011,2.09,–,–
"Cc1c(-c2c(-c3ccco3)sc3ncnc(N[C@H](Cc4ccccc4C(N)=O)C(=O)O)c23)ccc(OCCN2CCN(C)CC2)c1Cl [Example 11, 2-carbamoyl-N-[5-{3-chloro-2-methyl-4-[2-(4-methylpiperazin-1-yl)ethoxy]phenyl}-6-(furan-2-yl)thieno[2,3-d]pyrimidin-4-yl]-D-phenylalanine]",–,> 3750,–,"inhibition at 10 µM (Mcl-1 protein; partial inhibitors, @ 10 μM test compound, read-out: percentage fluorescence polarisation inhibition, Mcl-1 FP): 35.5%"
"CC#Cc1sc2ncnc(NC(Cc3ccccc3OCc3ccnn3CC(F)(F)F)C(=O)O)c2c1-c1ccc(OCCN(C)C)c(Cl)c1C [Example 46, N-[(5Sa)-5-{3-chloro-4-[2-(dimethylamino)ethoxy]-2-methylphenyl}-6-(prop-1-yn-1-yl)thieno[2,3-d]pyrimidin-4-yl]-2-{[1-(2,2,2-trifluoroethyl)-1H-pyrazol-5-yl]methoxy}-D-phenylalanine]",0.024,166,–,–
"COC(=O)c1oc(-c2sc3ncnc(NC(Cc4ccccc4OC)C(=O)O)c3c2-c2ccc(OCCN3CCN(C)CC3)c(Cl)c2C)cc1C [Example 66, N-((5Ra)-5-{3-chloro-2-methyl-4-[2-(4-methylpiperazin-1-yl)ethoxy]phenyl}-6-[5-(methoxycarbonyl)-4-methylfuran-2-yl]thieno[2,3-d]pyrimidin-4-yl)-2-methoxy-D-phenylalanine]",–,–,> 3750,"percentage fluorescence polarisation inhibition, Mcl-1 FP (Mcl-1 protein; [2]): 36.9% @ 10 μM"
